Like-named read-outs stand apart in the source and are kept apart here.

IC50 data for 14 compounds are collected here from patent publication US9636336B2, “Aminoester derivatives” (CHIESI FARMACEUTICI S.p.A., priority 2015, dated 2017).

In assay [1] the target is Human M3 receptor membranes (Homo sapiens (Human), UniProt P20309). The assay can be described thus: M3 Receptor radioligand binding assay. Here is the method: M3 Receptor Radioligand Binding Assay:
The assay is carried out in 96-well polypropylene plates in a volume of 250 μl. […] The final assay concentration of DMSO is 0.5% (v/v). The plates are sealed and incubated for 2 h at room temperature on an orbital shaker (slow speed). Membranes are harvested onto 96-well unifilter GF/C filter plates pre-treated with 0.5% polyethyleneimine (v/v), using a filter manifold, washed four times with 200 μl of assay buffer. The plates are dried before addition of 50 μl of microscint-0, sealed then read in a Trilux Microbeta scintillation counter. IC50 values are determined from competition curves using a non-linear curve fitting program. Ki values are calculated from IC50 values by the Cheng and Prusoff equation.

For assay [2], the target named is Human recombinant PDE4B2 (Homo sapiens (Human), UniProt Q07343). Put plainly: PDE4B2 HTRF assay. Format: biochemical. Here is the method:
PDE4B2 activity is detected using the LANCE Ultra cAMP homogeneous time resolved fluorescence resonance energy transfer (TR-FRET) assay from Perkin Elmer. The assay is based on the competition between the europium (Eu) chelate-labeled cAMP tracer and sample cAMP for binding sites on cAMP-specific monoclonal antibodies (mAb) labelled with the ULight™ dye. The assay is carried out in 384-well low volume plates in a volume of 10 μl. Human recombinant PDE4B2 (80 pM) is incubated for 2 h with 3 nM cAMP in buffer containing 1×HBSS, 5 mM HEPES, 3 mM MgCl2, 0.1% BSA, pH 7.4 with or without test compounds. The enzymatic reactions are efficiently stopped by the addition of 500 μM IBMX present in the combined Stop/Detection buffer containing europium (Eu) chelate-labeled cAMP tracer and cAMP-specific monoclonal antibodies (mAb) labelled with the ULight™ dye. […] IC50 values are determined from competition curves using a non-linear curve fitting program.

[3] abbreviates: M3 Receptor radioligand binding assay, read-out: M3 IC50 activity.
[4] abbreviates: PDE4B2 HTRF assay, read-out: PDE4B2 IC50 activity.

Sequence of Human recombinant PDE4B2 (Q07343 other isoform, or with tags, fused parts or gaps): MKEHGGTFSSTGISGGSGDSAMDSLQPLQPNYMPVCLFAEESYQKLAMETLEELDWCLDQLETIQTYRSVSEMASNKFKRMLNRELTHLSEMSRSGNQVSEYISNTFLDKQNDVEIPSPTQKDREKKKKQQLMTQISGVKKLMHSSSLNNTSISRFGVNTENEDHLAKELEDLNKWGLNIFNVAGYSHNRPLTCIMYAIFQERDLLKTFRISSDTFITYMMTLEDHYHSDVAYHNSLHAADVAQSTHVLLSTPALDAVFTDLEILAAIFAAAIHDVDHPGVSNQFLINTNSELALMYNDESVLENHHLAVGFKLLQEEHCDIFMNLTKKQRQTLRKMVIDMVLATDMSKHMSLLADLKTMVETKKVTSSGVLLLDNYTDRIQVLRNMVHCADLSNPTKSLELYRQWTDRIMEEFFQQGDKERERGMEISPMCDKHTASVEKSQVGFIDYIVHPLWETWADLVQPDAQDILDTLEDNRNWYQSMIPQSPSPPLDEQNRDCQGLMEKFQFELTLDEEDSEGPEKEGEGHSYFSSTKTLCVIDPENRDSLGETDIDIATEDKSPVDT
Sequence of Human M3 receptor membranes (P20309 whole entry): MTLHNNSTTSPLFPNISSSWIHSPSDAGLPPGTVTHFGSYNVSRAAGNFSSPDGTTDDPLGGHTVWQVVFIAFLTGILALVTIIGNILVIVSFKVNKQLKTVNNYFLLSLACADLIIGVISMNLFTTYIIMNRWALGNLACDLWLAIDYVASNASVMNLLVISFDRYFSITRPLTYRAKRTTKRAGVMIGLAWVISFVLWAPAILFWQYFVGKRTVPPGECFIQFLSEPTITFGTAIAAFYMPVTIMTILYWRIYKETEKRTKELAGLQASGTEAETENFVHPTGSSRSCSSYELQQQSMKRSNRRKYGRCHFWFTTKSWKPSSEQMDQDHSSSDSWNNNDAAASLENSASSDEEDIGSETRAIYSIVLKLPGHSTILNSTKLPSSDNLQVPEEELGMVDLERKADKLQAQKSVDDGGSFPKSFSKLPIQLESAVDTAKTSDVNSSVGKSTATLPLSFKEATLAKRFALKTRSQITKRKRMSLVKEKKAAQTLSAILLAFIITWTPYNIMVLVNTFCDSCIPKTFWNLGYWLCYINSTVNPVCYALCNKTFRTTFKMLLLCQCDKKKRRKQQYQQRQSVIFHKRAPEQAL

As usually defined, the IC50 is the concentration at which inhibition is half-maximal. Turning to `COc1ccc([C@H](Cc2c(Cl)c[n+]([O-])cc2Cl)OC(=O)c2ccc(CNC(CO)(C(=O)OCC3CCN(C)CC3)c3cccs3)s2)cc1OC` (mixture of isomers) [Example 37, [(1S)-2-(3,5-dichloro-1-oxido-pyridin-1-ium-4-yl)-1-(3,4-dimethoxyphenyl)ethyl]5-[[[1-(hydroxymethyl)-2-[(1-methyl-4-piperidyl)methoxy]-2-oxo-1-(2-thienyl)ethyl]amino]methyl]thiophene-2-carboxylate], the half-maximal inhibitory concentration (IC50) is 1 to 10 nM in assay [1] (setting [3]) and below 1 nM in assay [2] (setting [4]).

For the compound `COc1ccc([C@H](Cc2c(Cl)c[n+]([O-])cc2Cl)OC(=O)c2ccc(CNC(C(=O)OC[C@@H]3CN(C)CCN3C)c3ccccc3)s2)cc1OC` (stereo partly drawn) [Example 32, [(1S)-2-(3,5-dichloro-1-oxido-pyridin-1-ium-4-yl)-1-(3,4-dimethoxyphenyl)ethyl] 5-[[[2-[[(2S)-1,4-dimethylpiperazin-2-yl]methoxy]-2-oxo-1-phenyl-ethyl]amino]methyl]thiophene-2-carboxylate], the half-maximal inhibitory concentration (IC50) is 10 to 100 nM in assay [1] (setting [3]) and 1 to 10 nM in assay [2] (setting [4]).

On to `COc1ccc([C@H](Cc2c(Cl)c[n+]([O-])cc2Cl)OC(=O)c2ccc(CNC(C(=O)OC[C@@H]3CCCN(C)C3)c3ccccc3)s2)cc1OC` (stereo partly drawn) [Example 49, [(1S)-2-(3,5-dichloro-1-oxido-pyridin-1-ium-4-yl)-1-(3,4-dimethoxyphenyl)ethyl]5-[[[2-[[(3R)-1-methyl-3-piperidyl]methoxy]-2-oxo-1-phenyl-ethyl]amino]methyl]thiophene-2-carboxylate], for which the IC50 in assay [1] (setting [3]) lay within 10 to 100 nM; in assay [2] (setting [4]), 1 to 10 nM.

For `COc1ccc([C@H](Cc2c(Cl)c[n+]([O-])cc2Cl)OC(=O)c2ccc(CNC(C(=O)OC[C@H]3CCN(C)C3)c3ccccc3)s2)cc1OC` (stereo partly drawn) [Example 18, [(1S)-2-(3,5-dichloro-1-oxido-pyridin-1-ium-4-yl)-1-(3,4-dimethoxyphenyl)ethyl] 5-[[[2-[[(3S)-1-methylpyrrolidin-3-yl]methoxy]-2-oxo-1-phenyl-ethyl]amino]methyl]thiophene-2-carboxylate], the IC50 in assay [1] (setting [3]) and in assay [2] (setting [4]) was 1 to 10 nM throughout.

For the compound `COc1ccc([C@H](Cc2c(Cl)c[n+]([O-])cc2Cl)OC(=O)c2ccc(CNC(CO)(C(=O)OCC34CCN(CC3)CC4)c3ccccc3)s2)cc1OC` (stereo partly drawn) [Example 117, [(1S)-2-(3,5-dichloro-1-oxido-pyridin-1-ium-4-yl)-1-(3,4-dimethoxyphenyl)ethyl]5-[[[1-(hydroxymethyl)-2-oxo-1-phenyl-2-(quinuclidin-4-ylmethoxy)ethyl]amino]methyl]thiophene-2-carboxylate], the IC50 in assay [1] (setting [3]) is below 1 nM; in assay [2] (setting [4]), 1 to 10 nM.

Take `COc1ccc([C@H](Cc2c(Cl)c[n+]([O-])cc2Cl)OC(=O)c2ccc(CNC(C(=O)OCC3CCN(C(C)C)CC3)c3ccccc3)s2)cc1OC` (single isomer, unassigned) [Example 42]: the 50% inhibitory concentration (IC50) lay within 10 to 100 nM in assay [1] (setting [3]) and 1 to 10 nM in assay [2] (setting [4]).

Regarding `COc1ccc([C@H](Cc2c(Cl)c[n+]([O-])cc2Cl)OC(=O)c2ccc(CNC(C(=O)OCC3CCCCN3C)c3ccccc3)s2)cc1OC` (stereo partly drawn) [Example 31, [(1S)-2-(3,5-dichloro-1-oxido-pyridin-1-ium-4-yl)-1-(3,4-dimethoxyphenyl)ethyl] 5-[[[2-[(1-methyl-2-piperidyl)methoxy]-2-oxo-1-phenyl-ethyl]amino]methyl]thiophene-2-carboxylate], the IC50 in assay [1] (setting [3]) was in the range of 10 to 100 nM; in assay [2] (setting [4]) it was 1 to 10 nM.

As for `COc1ccc([C@H](Cc2c(Cl)c[n+]([O-])cc2Cl)OC(=O)c2ccc(CNCC(C(=O)OCC3CCN(C)CC3)c3ccccc3)s2)cc1OC` (stereo partly drawn) [Example 7, [(1S)-2-(3,5-dichloro-1-oxido-pyridin-1-ium-4-yl)-1-(3,4-dimethoxyphenyl)ethyl]5-[[[3-[(1-methyl-4-piperidyl)methoxy]-3-oxo-2-phenyl-propyl]amino]methyl]thiophene-2-carboxylate], the IC50 in assay [1] (setting [3]) lay within 10 to 100 nM; in assay [2] (setting [4]), 1 to 10 nM.

As to `COc1ccc([C@H](Cc2c(Cl)c[n+]([O-])cc2Cl)OC(=O)c2ccc(CNCC(O)(C(=O)OCC3CCN(C)CC3)c3cccs3)s2)cc1OC` (stereo partly drawn) [Example 1, [(1S)-2-(3,5-dichloro-1-oxido-pyridin-1-ium-4-yl)-1-(3,4-dimethoxyphenyl)ethyl]5-[[[2-hydroxy-3-[(1-methyl-4-piperidyl)methoxy]-3-oxo-2-(2-thienyl)propyl]amino]methyl]-thiophene-2-carboxylate], the results for the IC50 in assay [1] and in assay [2] were 10 to 100 nM and 1 to 10 nM, respectively.

For the compound `COc1ccc([C@H](Cc2c(Cl)c[n+]([O-])cc2Cl)OC(=O)c2ccc(CNC(C(=O)OC[C@@H]3CCN(C)C3)c3ccccc3)s2)cc1OC` (stereo partly drawn) [Example 17, [(1S)-2-(3,5-dichloro-1-oxido-pyridin-1-ium-4-yl)-1-(3,4-dimethoxyphenyl)ethyl] 5-[[[2-[[(3R)-1-methylpyrrolidin-3-yl]methoxy]-2-oxo-1-phenyl-ethyl]amino]methyl]thiophene-2-carboxylate], the IC50 in assay [1] (setting [3]) and in assay [2] (setting [4]) was 1 to 10 nM in each case.

On to `COc1ccc(C(Cc2c(Cl)c[n+]([O-])cc2Cl)OC(=O)c2ccc(CNC(C(=O)OCC3CCN(C)CC3)c3ccccc3)s2)cc1OC1CCCC1` (stereo not shown) [Example 5, [1-[3-(cyclopentoxy)-4-methoxy-phenyl]-2-(3,5-dichloro-1-oxido-pyridin-1-ium-4-yl)ethyl] 5-[[[2-[(1-methyl-4-piperidyl)methoxy]-2-oxo-1-phenyl-ethyl]amino]methyl]thiophene-2-carboxylate], for which the IC50 in assay [1] (setting [3]) and in assay [2] (setting [4]) was 1 to 10 nM throughout.

For the compound `COc1ccc([C@H](Cc2c(Cl)c[n+]([O-])cc2Cl)OC(=O)c2ccc(CNC(C(=O)OCC3(C)CCN(C)CC3)c3ccccc3)s2)cc1OC` (mixture of isomers) [Example 2, [(1S)-2-(3,5-dichloro-1-oxido-pyridin-1-ium-4-yl)-1-(3,4-dimethoxyphenyl)ethyl]5-[[[2-[(1,4-dimethyl-4-piperidyl)methoxy]-2-oxo-1-phenyl-ethyl]amino]methyl]thiophene-2-carboxylate], the IC50 in assay [1] (setting [3]) is 10 to 100 nM; in assay [2] (setting [4]), 1 to 10 nM.

Consider `COc1ccc([C@H](Cc2c(Cl)c[n+]([O-])cc2Cl)OC(=O)c2ccc(CNC(C(=O)OC[C@H]3CN(C)CCN3C)c3ccccc3)s2)cc1OC` (stereo partly drawn) [Example 29, [(1S)-2-(3,5-dichloro-1-oxido-pyridin-1-ium-4-yl)-1-(3,4-dimethoxyphenyl)ethyl] 5-[[[2-[[(2R)-1,4-dimethylpiperazin-2-yl]methoxy]-2-oxo-1-phenyl-ethyl]amino]methyl]thiophene-2-carboxylate], for which the IC50 in assay [1] (setting [3]) lay within 10 to 100 nM; in assay [2] (setting [4]), 1 to 10 nM.

On to `COc1ccc([C@H](Cc2c(Cl)c[n+]([O-])cc2Cl)OC(=O)c2ccc(CNC(C(=O)OC[C@@H]3CCCN(C)C3)c3ccccc3)s2)cc1OC` (stereo partly drawn) [Example 14, [(1S)-2-(3,5-dichloro-1-oxido-pyridin-1-ium-4-yl)-1-(3,4-dimethoxyphenyl)ethyl]5-[[[2-[[(3R)-1-methyl-3-piperidyl]methoxy]-2-oxo-1-phenyl-ethyl]amino]methyl]thiophene-2-carboxylate], for which the IC50 in assay [1] (setting [3]) and in assay [2] (setting [4]) was 1 to 10 nM throughout.
